Consider five compounds from US4596789A, “Proline derivatives” (ICI Americas Inc., priority 1983, dated 1986).

pKi: −log10 of the molar value. Starred links: 1 amine or outer side, 2 acyl side, 3 side chain; linkers in the order of their positions; H or OH if unused. Non-standard residues stand in square brackets, D forms with d. Residues, ends and D or L forms follow the SMILES beside them. *: point of attachment. Suc = O=C(CCC(=O)[*:2])[*:1]; MeOSuc = COC(=O)CCC(=O)*; Cbz = O=C(OCc1ccccc1)*; Boc = CC(C)(C)OC(=O)*; CO = O=C([*:1])[*:2]

The target of data set [1] is T1, human leukocyte elastase (HLE) (Homo sapiens, UniProt P08246).
T1 construct: The HLE enzyme used in these studies may be obtained according to B. R. Viscarello et al. in Preparative Biochemistry, Vol. 13 (1983); from tissue; The enzyme was isolated by a cited preparative procedure. b8 says HLE is released from the granules of polymorphonuclear leukocytes
T1 sequence (P08246 30-267): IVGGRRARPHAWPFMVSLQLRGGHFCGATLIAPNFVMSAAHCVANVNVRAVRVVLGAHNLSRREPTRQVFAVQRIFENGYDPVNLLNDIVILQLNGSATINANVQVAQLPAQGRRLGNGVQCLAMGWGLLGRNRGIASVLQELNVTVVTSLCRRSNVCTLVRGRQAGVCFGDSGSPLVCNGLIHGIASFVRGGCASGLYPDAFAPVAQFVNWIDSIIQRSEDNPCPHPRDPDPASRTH
Nature of the data set: Inhibition of human leukocyte elastase acting on a peptide p-nitroanilide substrate, Ki from Dixon plot. In kind it is biochemical. The conditions noted are these: room temperature; 16.6% (v/v) DMSO, pH 8.1; substrate methoxysuccinyl-alanyl-alanylprolyl-valine-p-nitroanilide 1.6×10^-4 molar; read-out: Ki, dissociation constant of the inhibitor-HLE complex. The method, then: The potency of compounds of the invention to act as elastase inhibitors was determined by the ability of a compound of the invention to inhibit the action of human leukocyte elastase (HLE) on a low molecular weight peptide substrate. The potency of an inhibitor is evaluated by obtaining a kinetic determination of the dissociation constant, Ki, of the complex formed from the interaction of the inhibitor with HLE. The substrate used was the anilide methoxysuccinyl-alanyl-alanylprolyl-valine-p-nitroanilide as described by K. Nakajima et al. in The Journal of Biological Chemistry, Vol. 254, pages 4027-4032 (1979) and by T. Teshima et al. in The Journal of Biological Chemistry, Vol. 257, No. 9, pages 5085-5091 (1982). The HLE enzyme used in these studies may be obtained according to B. R. Viscarello et al. in Preparative Biochemistry, Vol. 13 (1983).
From HLE enzyme obtained as described in the Viscarello et al reference, a standard rate of production of p-nitroaniline was measured at room temperature spectrophotometrically in the visible spectrum at 410 nanometers, with automatic data acquisition in a Cary 210-Apple III Plus microcomputer system obtained from Varian Associates. Reactions were initiated by injection of a small aliquot (50 or 100 microliters) of a stock solution of the anilide substrate in DMSO into a curvette containing buffer and HLE enzyme. The amount of HLE used is sufficient to produce an initial velocity of about 0.01 OD (optical density) per minute. Final volume was 3.0 ml. Initial velocities of production of p-nitroaniline were determined from linear regression analysis of at least 30 data points (OD410 vs. time) taken during the initial, linear, portion of the reaction. The initial velocity for the HLE sample without any inhibitor being present was obtained and used as a standard for the subsequent determination of the initial velocity of the reaction in the presence of an inhibitor to be tested. The Ki value of a particular inhibitor was determined as follows. To a 3 ml cuvette were added […] of a buffer (9 millimolar sodium phosphate, 10% DMSO (v/v), pH=7.9), 100 microliters of inhibitor solution in DMSO and 20 microliters of HLE stock solution at the same concentration used in the control. After the inhibitor and enzyme solution had equilibrated, the reaction was initiated by the addition of 100 microliters of the stock substrate solution in DMSO. The final solution was 16.6% (v/v) in DMSO, with pH 8.1. The substrate was at an initial concentration of 1.6×10^-4 molar. […]

Data set [2] in a line: Pharmacokinetics: serum level of inhibitor after subcutaneous injection. In kind it is in vivo, Male Syrian hamsters. The conditions noted are these: serum inhibitor concentration vs time. As to the method: Pharmacokinetics: Male Syrian hamsters (80 to 120) g) are injected subcutaneously with the test compound. Prior to injection and at varying time periods thereafter they are lightly anesthetized with ether and blood samples of approximately 0.2 ml each are withdrawn by cardiac puncture. The blood is expressed into 2 ml centrifuge tubes and allowed to clot for one hr. The sample is then centrifuged and the serum removed. Blood samples are taken before (time 0) and 15, 30, 60, 90 and 120 minutes after subcutaneous administration of the test compound in an appropriate vehicle.
Drug levels are determined by first inactivating endogenous elastase inhibitors by incubation of 50 microliters of serum with an equal volume of buffer containing 5 mg/ml bovine pancreatic trypsin for 5 min. […] After an additional 2 min. incubation, the reaction is started by the addition of substrate (100 microliters) (MeOSuc-Ala-Ala-Pro-Val-pNA, 1.6 mM) and the reaction monitored spectrophotometrically at a wavelength of 410 nm. Serum concentrations of the test compounds are determined by the following equation: [formula] where [I], [E] and [S] are the assay concentrations of inhibitor enzyme and substrate respectively, Ki is the inhibition constant of the inhibitor being assayed, Km is the Michaelis constant of the substrate, Vo is the control uninhibited reaction velocity, and Vi is the inhibited reaction velocity. […]

The target of data set [3] is T2, human leukocyte elastase (Homo sapiens, UniProt P08246).
T2 sequence (P08246 30-267): T1 sequence (P08246 30-267)
To be noted: reported by Szabo et al. 1982, cited from earlier work.

As to `COC(=O)[C@H](CC(C)C)NC(=O)N[C@H](C(=O)N1CCC[C@H]1C(=O)N[C@H](C=O)C(C)C)C(C)C` [Example 32g, N-[1(S)-Carbomethoxy-3-methylbutyl]carbamoyl-L-valyl-L-prolyl-L-valinal] ({OMe-Leu-CO}-Val-Pro-Val-aldehyde), the pKi in data set [1] was 7.03.
As for `CC(C)[C@H](NC(=O)[C@H](CCCCNC(=O)OCc1ccccc1)NC(=O)CCC(=O)O)C(=O)N1CCC[C@H]1C(=O)N[C@H](C=O)C(C)C` [Example 5b, N-alpha-Succinyl-N-epsilon-benzyloxycarbonyl-L-lysyl-L-valyl-L-prolyl-L-va linal] (Suc-K(Cbz)VPV-aldehyde), the pKi in data set [1] is 7.52. In addition, the “activity in animals as measured by the pharmacokinetics test” value in data set [2] is “good activity in animals”.
`CC(C)[C@H](NC(=O)[C@H](CCCCNC(=O)OCc1ccccc1)NC(=O)OC(C)(C)C)C(=O)N1CCC[C@H]1C(=O)N[C@H](C=O)C(C)C` [Example 1f, N-alpha-t-Butyloxycarbonyl-N-epsilon-benzyloxycarbonyl-L-lysyl-L-valyl-L-p rolyl-L-valinal] (Boc-K(Cbz)VPV-aldehyde): the pKi in data set [1] was 7.82.
Still for that read-out and setting: to `COC(=O)CCC(=O)N[C@@H](CCCCNC(=O)OCc1ccccc1)C(=O)N[C@H](C(=O)N1CCC[C@H]1C(=O)N[C@H](C=O)C(C)C)C(C)C` [Example 8b, N-alpha-Methoxysuccinyl-N-epsilon-benzyloxycarbonyl-L-lysyl-L-valyl-L-prol yl-L-valinal] (MeOSuc-K(Cbz)VPV-aldehyde) belongs 8.22.
With `CC(C)[C@@H](C=O)NC(=O)[C@@H]1CCCN1C(=O)[C@@H](Cc1ccccc1)NC(=O)CCC(=O)O` [N-succinyl-D-phenylalanyl-L-prolyl-L-valinal] (Suc-[dF]-Pro-Val-aldehyde), in data set [3], the “stronger inhibition than the other four aldehydes” value is on record as 10-100 times. Moreover, in data set [3] (read-out: Ki (HLE inhibition)), the negative-log Ki (pKi) was 4.40.

By pKi is commonly meant the negative decadic logarithm of the Ki, by convention in mol/L.
